Laboratory results as given in article PMC9386018, “A lymphatic-absorbed multi-targeted kinase inhibitor for myelofibrosis therapy” (Nature Communications, 2022).
Where “and” joins values, the source holds several entries; their conditions need not be identical. Equal values may be shown once.

Tests used:
SET-2 cells = test: SET-2 proliferation assay (CellTiter-Fluor); assay type: cell-based, human; details: 72 h, replicates (Fig. 2d)
Protocol: Viable cells were counted by CellTiter-Fluor Assay (Promega) according to manufacturer’s protocol, and all fluorescence values were corrected by a no-cell control. […] Caspase activity was measured by Caspase-Glo 3/7 assay (Promega) according to the manufacturer’s protocol, and all luminescence values were corrected by a no-cell control. Dose response proliferation and Caspase activation data was normalized to vehicle treated control cells and analyzed by non-linear regression for determination of IC50 values. Data was generated from n = 3 independent experiments performed in replicate.

[1] = target: T1, Target kinase isoforms (PI3K, mTOR, RAF, MEK) (Homo sapiens, UniProt O00329); test: Target kinase isoforms 10-point IC50 determination (Supplementary Fig. 7); assay type: biochemical; details: PI3K delta
T1 sequence (O00329 1-1044): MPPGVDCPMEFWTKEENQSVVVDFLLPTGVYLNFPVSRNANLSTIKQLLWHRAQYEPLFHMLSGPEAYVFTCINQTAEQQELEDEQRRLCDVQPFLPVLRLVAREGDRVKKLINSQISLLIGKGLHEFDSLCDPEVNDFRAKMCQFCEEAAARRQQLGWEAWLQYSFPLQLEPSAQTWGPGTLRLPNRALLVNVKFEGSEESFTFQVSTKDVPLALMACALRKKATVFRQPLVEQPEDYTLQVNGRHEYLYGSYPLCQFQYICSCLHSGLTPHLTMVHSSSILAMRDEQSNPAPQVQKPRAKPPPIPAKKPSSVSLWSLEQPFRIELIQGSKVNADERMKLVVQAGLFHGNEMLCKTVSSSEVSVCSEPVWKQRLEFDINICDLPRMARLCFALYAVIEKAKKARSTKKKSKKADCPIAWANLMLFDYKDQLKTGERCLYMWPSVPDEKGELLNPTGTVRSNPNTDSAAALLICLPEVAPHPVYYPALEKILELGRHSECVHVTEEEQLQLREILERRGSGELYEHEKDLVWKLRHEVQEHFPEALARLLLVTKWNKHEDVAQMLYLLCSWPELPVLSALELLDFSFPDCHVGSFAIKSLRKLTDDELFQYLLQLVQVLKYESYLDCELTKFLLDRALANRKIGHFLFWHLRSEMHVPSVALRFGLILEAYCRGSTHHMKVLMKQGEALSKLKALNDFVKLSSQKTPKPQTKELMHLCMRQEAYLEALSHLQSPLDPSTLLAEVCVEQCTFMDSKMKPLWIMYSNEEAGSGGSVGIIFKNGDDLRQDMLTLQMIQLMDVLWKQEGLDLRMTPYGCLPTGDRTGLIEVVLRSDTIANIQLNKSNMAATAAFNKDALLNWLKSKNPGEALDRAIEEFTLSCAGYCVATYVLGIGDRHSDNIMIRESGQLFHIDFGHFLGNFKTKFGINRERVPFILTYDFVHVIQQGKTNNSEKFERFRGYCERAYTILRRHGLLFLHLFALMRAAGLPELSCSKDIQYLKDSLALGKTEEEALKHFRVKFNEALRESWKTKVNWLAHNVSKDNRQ
Procedure, shortened: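 Kinase activity across a 10-point dose series was corrected and normalized to vehicle-treated controls. IC50 values were derived by non-linear regression of percent activity. Kinome-wide percent inhibition was averaged over replicates.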

PI3Kγ = PI3Kγ (Homo sapiens, UniProt P48736); test: Target kinase 10-point inhibition assay, PI3Kγ; assay type: biochemical; details: PI3K gamma, replicates
Chain of PI3Kγ (P48736 whole entry, canonical isoform): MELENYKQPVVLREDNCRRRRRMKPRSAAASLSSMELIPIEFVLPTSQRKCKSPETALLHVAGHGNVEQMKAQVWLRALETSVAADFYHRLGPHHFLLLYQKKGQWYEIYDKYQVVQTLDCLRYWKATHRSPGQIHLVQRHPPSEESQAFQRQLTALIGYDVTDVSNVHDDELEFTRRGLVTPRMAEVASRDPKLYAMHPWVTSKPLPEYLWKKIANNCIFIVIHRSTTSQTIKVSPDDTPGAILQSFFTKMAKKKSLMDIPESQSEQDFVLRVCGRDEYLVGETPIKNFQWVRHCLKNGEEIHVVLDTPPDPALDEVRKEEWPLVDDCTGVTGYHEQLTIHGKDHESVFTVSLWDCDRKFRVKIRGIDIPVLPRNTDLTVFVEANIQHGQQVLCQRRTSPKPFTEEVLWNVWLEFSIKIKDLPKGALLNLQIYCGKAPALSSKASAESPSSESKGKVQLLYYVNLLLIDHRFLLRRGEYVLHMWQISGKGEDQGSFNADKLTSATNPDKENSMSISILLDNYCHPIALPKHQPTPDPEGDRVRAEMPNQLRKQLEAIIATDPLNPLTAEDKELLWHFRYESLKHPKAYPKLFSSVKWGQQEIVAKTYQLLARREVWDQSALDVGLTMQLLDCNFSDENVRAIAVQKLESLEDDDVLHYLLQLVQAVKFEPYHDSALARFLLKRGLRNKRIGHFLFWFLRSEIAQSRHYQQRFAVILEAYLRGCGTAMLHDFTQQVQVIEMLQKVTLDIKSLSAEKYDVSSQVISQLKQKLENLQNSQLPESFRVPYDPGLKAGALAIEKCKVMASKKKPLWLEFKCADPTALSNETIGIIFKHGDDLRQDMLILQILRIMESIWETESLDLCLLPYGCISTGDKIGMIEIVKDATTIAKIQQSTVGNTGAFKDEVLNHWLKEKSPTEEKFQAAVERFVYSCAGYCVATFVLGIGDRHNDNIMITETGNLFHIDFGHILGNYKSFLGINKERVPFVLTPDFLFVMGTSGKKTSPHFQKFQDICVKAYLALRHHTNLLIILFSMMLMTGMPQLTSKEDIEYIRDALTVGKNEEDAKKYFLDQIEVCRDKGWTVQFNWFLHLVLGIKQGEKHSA
Protocol: (§1) Quantitation of kinase inhibition was carried out by Life Technologies (Madison, WI) using the SelectScreen profiling platforms Z’-LYTE^TM and Adapta^TM. Single-point broad panel kinome screening was performed at 2.5 µM LP-182 against all kinases within the Z’-LYTE^TM and Adapta^TM assays (321 kinase isoforms, holoenzymes, or mutant variants). The average percent kinase inhibition from replicate data was ranked low to high, converted to a compatible identifier format, then input into Coral Human Kinome Visualization software for presentation analysis. […] Scaling of evolutionary distance for PI kinases is only relative and is based on literature analysis[62],[63]. Average percent kinome inhibition values from replicate data are supplied in Source Data file. […]. Corrected data was normalized to vehicle treated control values, and dose response percent kinase activity was analyzed by non-linear regression for determination of IC50 values.

mTOR = mTOR (Homo sapiens, UniProt P42345); test: Target kinase 10-point inhibition assay, mTOR; assay type: biochemical; details: replicates
Chain of mTOR (P42345 1360-2549 limits assumed): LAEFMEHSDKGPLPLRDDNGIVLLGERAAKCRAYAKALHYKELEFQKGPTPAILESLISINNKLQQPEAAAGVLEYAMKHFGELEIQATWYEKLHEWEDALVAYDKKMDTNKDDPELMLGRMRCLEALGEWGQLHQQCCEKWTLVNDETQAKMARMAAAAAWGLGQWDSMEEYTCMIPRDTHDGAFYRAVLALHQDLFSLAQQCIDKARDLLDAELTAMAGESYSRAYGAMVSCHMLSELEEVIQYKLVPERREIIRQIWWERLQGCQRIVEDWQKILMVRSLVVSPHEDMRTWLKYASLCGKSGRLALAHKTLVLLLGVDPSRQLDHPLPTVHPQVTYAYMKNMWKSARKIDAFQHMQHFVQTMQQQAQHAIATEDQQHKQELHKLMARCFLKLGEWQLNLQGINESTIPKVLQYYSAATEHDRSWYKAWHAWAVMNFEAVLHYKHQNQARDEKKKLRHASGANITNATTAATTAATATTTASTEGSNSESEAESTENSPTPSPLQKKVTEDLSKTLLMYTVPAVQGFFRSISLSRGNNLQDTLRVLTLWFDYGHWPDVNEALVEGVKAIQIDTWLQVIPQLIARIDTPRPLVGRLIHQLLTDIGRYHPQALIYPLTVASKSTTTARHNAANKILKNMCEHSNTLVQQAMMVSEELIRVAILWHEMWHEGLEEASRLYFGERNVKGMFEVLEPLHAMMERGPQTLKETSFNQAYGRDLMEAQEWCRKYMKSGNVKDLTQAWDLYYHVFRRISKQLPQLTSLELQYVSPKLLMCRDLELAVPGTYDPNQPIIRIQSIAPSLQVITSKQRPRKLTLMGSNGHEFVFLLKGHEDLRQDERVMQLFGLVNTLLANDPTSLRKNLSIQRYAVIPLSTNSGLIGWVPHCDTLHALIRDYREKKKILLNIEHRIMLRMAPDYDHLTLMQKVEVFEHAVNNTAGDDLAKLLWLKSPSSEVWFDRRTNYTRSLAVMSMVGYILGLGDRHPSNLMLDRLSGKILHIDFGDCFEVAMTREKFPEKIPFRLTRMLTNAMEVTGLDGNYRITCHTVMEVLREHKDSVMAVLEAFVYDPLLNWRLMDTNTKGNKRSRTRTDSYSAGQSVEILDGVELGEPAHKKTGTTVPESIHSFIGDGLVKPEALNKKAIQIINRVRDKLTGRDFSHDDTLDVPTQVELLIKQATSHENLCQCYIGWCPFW
Protocol: as §1

Kinase Activity (%) PI3K delta ([1]; concentration 0.0187 nM, 18.7 pM): 106% and 96% and 89% and 81%
Kinase Activity (%) PI3K delta ([1]; concentration 41.2 nM, 0.0412 µM): 2% and 3%
Kinase Activity (%) PI3K delta ([1]; concentration 123 nM, 0.123 µM): 1% and 3%
Kinase Activity (%) PI3K delta ([1]; concentration 370 nM, […]): 2%
activity at 1.11 µM ([1]; concentration 1110 nM): 0%
Kinase Activity (%) PI3K delta ([1]; concentration 3330 nM, 3.33 µM): 2%
Kinase Activity (%) PI3K delta ([1]; concentration 10000 nM, 10 µM): 9%
activity at 18.7 pM (PI3Kγ; 0.0187 nM): 98%
Kinase Activity (%) (PI3Kγ; 0.0187 nM, 18.7 pM): 118% and 115% and 109%
Kinase Activity (%) (PI3Kγ; 0.0562 nM, 56.2 pM): 103% and 91% and 124%
Kinase Activity (%) (PI3Kγ; 1110 nM, 1.11 µM): 0% (4×) and 8% and 1%
Kinase Activity (%) (PI3Kγ; 3330 nM, 3.33 µM): 0% (5×) and 3%
Kinase Activity (%) (PI3Kγ; 10000 nM, 10 µM): 3% and 0% (4×) and 8%
activity at 6.09 pM (PI3Kγ; […]): 102%
activity at 0.000495 µM (mTOR; 0.495 nM): 96%
Kinase Activity (%) (mTOR; 0.495 nM, 0.000495 µM): 89% and 90% (2×) and 92%
activity at 0.00152 µM (mTOR; 1.52 nM): 78%
Kinase Activity (%) (mTOR; 1.52 nM, 0.00152 µM): 80% and 77% and 74% and 83% and 76%
activity at 0.00457 µM (mTOR; 4.57 nM): 63%
Kinase Activity (%) (mTOR; 4.57 nM, 0.00457 µM): 61% and 56% and 52% and 57% and 58%
Kinase Activity (%) (mTOR; 123 nM, 0.123 µM): 7% (2×) and 3% and 2% and 5% and 0%
Kinase Activity (%) (mTOR; 1110 nM, 1.11 µM): 5% and 3% and 2% and -4% and -2% and -1%
Kinase Activity (%) (mTOR; 3330 nM, 3.33 µM): 3% and 2% and 1% and -3% and -2% and -4%
Kinase Activity (%) (mTOR; 10000 nM, 10 µM): 6% and 3% and 0% and -1% and 1% and -2%
SMILES: O=S(=O)(Nc1cc(-c2ccc3ncc(N4CCNCC4)nc3c2)cnc1Cl)c1ccc(F)cc1 [LP-527, N-(2-chloro-5-(3-(piperazin-1-yl)quinoxalin-6-yl)pyridin-3-yl)-4-fluorobenzenesulfonamide]
Growth (%) (SET-2 cells; 0.0390625 µM): 97.7197% and 103.197% and 95.0232% and 96.0199% and 87.1186% and 84.2432%
Growth (%) (SET-2 cells; 0.078125 µM): 102.201% and 95.8185% and 100.256% and 94.6633% and 89.3668% and 84.7402%
Growth (%) (SET-2 cells; 0.15625 µM): 60.7367% and 65.6255% and 73.87% and 70.9074% and 80.6697% and 85.462%
Growth (%) (SET-2 cells; 0.3125 µM): 89.6622% and 88.0779% and 85.9694% and 85.0557% and 87.935% and 90.4791%
Growth (%) (SET-2 cells; 0.625 µM): 81.0162% and 91.3823% and 77.1925% and 82.0932% and 77.6879% and 82.066%
Growth (%) (SET-2 cells; 5 µM): 12.7992% and 7.412% and 15.3388% and 14.5913% and 45.9761% and 39.8941%
Growth (%) (SET-2 cells; 10 µM): -3.542% and -5.534% and -4.236% and 0.443% and 15.3648% and 16.0393%
Growth (%) (SET-2 cells; 20 µM): -8.838% and -10.5585% and -11.075% and -10.5212% and 6.443% and 9.661%
Kinase Activity (%) PI3K delta ([1]; concentration 0.0562 nM, 56.2 pM): 100% and 95% and 78% and 86% and 79% and 91%
Kinase Activity (%) (PI3Kγ; 0.495 nM, 0.000495 µM): 94% (2×) and 75% and 83% and 72% and 100% and 97% and 99% and 96%
Kinase Activity (%) (PI3Kγ; 1.52 nM, 0.00152 µM): 67% and 68% and 73% and 64% and 69% (2×) and 94% and 93% and 92% and 65%
Kinase Activity (%) (PI3Kγ; 4.57 nM, 0.00457 µM): 52% and 53% and 49% and 45% and 47% and 76% and 79% and 62% and 70% and 55%
Kinase Activity (%) (PI3Kγ; 41.2 nM, 0.0412 µM): 18% and 7% and 11% and 10% and 9% and 25% and 24% and 17% and 23% and 14%
Kinase Activity (%) (PI3Kγ; 123 nM, 0.123 µM): 5% and 3% (2×) and 6% and 4% and 11% and 10% (2×) and 9% and 8%
Kinase Activity (%) (mTOR; 41.2 nM, 0.0412 µM): 15% and 14% and 8% and 12% and 0% and 10%
